The results in this text go back to ChEMBL document CHEMBL3507680, “University of Dundee, Gates Library screen for HepG2 cell viability”.

The nature of the series: Human HepG2 cell viability assay in 384 well format. In kind it is toxicity, cell-based. Also on record: dose 125 nL, time 70.5 hour; cytotoxicity at 70.5 h: concentration not given beside the values. Conditions: HepG2 cells, read-out: Inhibition.
`CCOc1cccc(CN2CCCC(Nc3ccc(F)cc3)C2)c1O` (centres undefined): the cytotoxicity at 70.5 h was -6.06%. In the case of `Cc1ccc(N(CC(=O)N2CCCCC2)C(=O)C2CCCO2)cc1` (centres undefined), the cytotoxicity at 70.5 h is -1.14%. Turning to `Cc1cc(C)cc(OCC(=O)N2CCCN(CC(N)=O)CC2)c1`, the cytotoxicity at 70.5 h was -16.4%. Turning to `CCOc1ccc(Cl)c(C(=O)N2CCN(C(=O)c3ccoc3C)CC2)n1`, the cytotoxicity at 70.5 h is -1.97%. As to `Cc1noc(C)c1CN1CC[C@H]2OCC[C@@]2(C(=O)NCC2CC2)C1`, the cytotoxicity at 70.5 h was -5.64%. For `O=C(c1cc[nH]n1)N1CCC(F)(F)C2(CCN(c3ccccn3)C2)C1` (centres undefined), the cytotoxicity at 70.5 h was 11%. Next, `CCCSCC(=O)N1C[C@H]2CC[C@@H]1CN(Cc1cccnc1)C2`: 6.46%; `CSc1nccn1-c1cccc(C(=O)NCC2CC2)c1`: 0.766%. Regarding `Cc1cccc(S(=O)(=O)N2C[C@H]3C[C@H](C(=O)NCC4CC4)[C@@H](C2)O3)c1`, the cytotoxicity at 70.5 h is -0.444%. Next, `Cc1cnc(N2CCC3(CC2)CC(NC(=O)C(C)C)CO3)nc1` (centres undefined): 11.3%; `COc1ncc(CN2CCC3(CCCN(CC4CCCCC4)C3)C2)cn1` (centres undefined): 26.8%.

On to `Cc1ccc(N2CCCC(NCc3ccc(Cl)o3)C2)nn1` (centres undefined), for which the cytotoxicity at 70.5 h was -1.97%.

On to `O=C(NC1(C(=O)O)CCCCC1)C1Cc2ccccc2O1` (centres undefined), for which the cytotoxicity at 70.5 h is -3.59%. In the case of `CCc1nc(C2CCCN(C(=O)c3ccccc3F)C2)no1` (centres undefined), the cytotoxicity at 70.5 h is -2.67%.

On to `CSc1[nH]nc(NC(=O)c2ccccc2)c1C#N`, for which the cytotoxicity at 70.5 h is -10%. Next, `CCc1nccn1CC1CCCN1S(=O)(=O)Cc1ccccc1` (centres undefined): -10.3%. Regarding `O[C@@H]1C[C@H]2CN(Cc3ccccc3Cl)[C@H](Cc3ccccc3)CN2C1`, the cytotoxicity at 70.5 h was determined as 25.5%. To `CN1CCN(CCCN(C)S(=O)(=O)CC2CCCCC2)CC1` belongs -3.5%; to `c1cnnc(N2CCCC2CNCc2nc(-c3ccoc3)no2)c1` (centres undefined), 10%. Next, `COCC(=O)N1CCCC1c1cc(N2CCN(C(C)=O)CC2)cc(C)n1` (centres undefined): 22.7%; `Cc1nnc(CN(Cc2ccccc2C(F)(F)F)C2CC2)o1`: -10.9%; `CC(C)C(=O)N1CCCC12CCN(C(=O)c1ccno1)C2` (centres undefined): -1.72%. To `CC1CCN(c2cc(CCC3CCCN3)ncn2)CC1` (centres undefined) belongs -3.6%. As to `Cc1nn(-c2ccccc2Cl)c(C)c1CCC(=O)O`, the cytotoxicity at 70.5 h turned out to be 4.21%. Next, `COCCCN1Cc2cccc(NC(=O)c3ccccc3Cl)c2C1`: 12.9%. With `Cc1cc(NCCO)nc(N2CCC(Cc3ccccc3)CC2)c1C#N`, the cytotoxicity at 70.5 h stood at 0.669%. Turning to `Cc1cc(C[C@@H]2CCC[C@H]2NCc2cc(F)ccc2F)on1`, the cytotoxicity at 70.5 h is -1.78%. With `CC(C)c1ncncc1C(=O)N1CCN(Cc2ccsc2)CC1`, the cytotoxicity at 70.5 h is -10.1%. To `O=C(c1cn(-c2cc(N3CCSCC3)ncn2)cn1)N1CCSCC1` belongs -1.64%. As to `CCN1CCN(C(=O)NCc2cccc(-c3cnn(C)c3)c2)CC1`, the cytotoxicity at 70.5 h was -2.59%. Next, `CC(C)CC(=O)N1CCCC1c1nccnc1Nc1ncccn1` (centres undefined): 29.4%; `Cc1cc(NC(=O)CN2CCCCC2Cn2nc(C)nc2C)on1` (centres undefined): -8.71%.

On to `Cc1c[nH]c(CN2CCCCC2CCc2cccc(O)c2)c(C)c1=O` (centres undefined), for which the cytotoxicity at 70.5 h is -5.58%. Next, `O=C(NCC1(c2ccc(F)cc2)CCC1)N1CCC2(CCOCC2)C1`: 7.66%; `O=C(O)c1c[nH]c2cc(NS(=O)(=O)c3cccc(F)c3F)ccc12`: -9.73%. Take `CN1CC2(CCN(Cc3ncc[nH]3)CC2)CC1=O`: the cytotoxicity at 70.5 h is -4.6%. `Cc1cnn(CCCNCc2csc(COc3ccccc3)n2)c1`: the cytotoxicity at 70.5 h was -3.68%. Consider `c1csc(CN2CC[C@H]3C[C@H](c4ccncn4)O[C@@H]3C2)c1`, for which the cytotoxicity at 70.5 h is -13.1%.

As for `Cc1c(F)cc(C(=O)O)cc1S(=O)(=O)Nc1ccc(C#N)cc1`, the cytotoxicity at 70.5 h was determined as 19.6%. `COCCNc1ccc(CC2CCCN(C3CCOCC3)C2)nn1` (centres undefined): the cytotoxicity at 70.5 h is -4.94%. Consider `CC(C)n1ccnc1C1CCCN(c2cncc(N(C)C)n2)C1` (centres undefined), for which the cytotoxicity at 70.5 h was 2.84%.

In the case of `CCCc1n[nH]c(=O)n1Cc1ccc(OC)cc1`, the cytotoxicity at 70.5 h was found to be 12.2%. `O=C(CC1COCCN1)NCCc1nc(Cc2ccccc2)no1` (centres undefined): the cytotoxicity at 70.5 h is -15.5%. Regarding `COc1ccc(CN(C)CC(=O)NC2(C)CCS(=O)(=O)C2)cc1F` (centres undefined), the cytotoxicity at 70.5 h was -0.516%.

`CC(C1CC1)N(C)C(=O)CCn1cccn1` (centres undefined): the cytotoxicity at 70.5 h was 8.62%. Regarding `O=C(O)C1(O)CCN(c2ccc3cccc(Cl)c3n2)CC1`, the cytotoxicity at 70.5 h was -20.3%.

`COCCOCC(=O)Nc1ccc(C)cc1F`: the cytotoxicity at 70.5 h is -7.66%. Consider `COc1ccc(Br)cc1Cn1nc(C(N)=O)ccc1=O`, for which the cytotoxicity at 70.5 h was -6.15%. `CN1CCN(CC(C)(C)C)CC1CCO` (centres undefined): the cytotoxicity at 70.5 h is -3.64%.

With `Cn1nnc2c1CCN(Cc1ccncc1)C2COCC1CC1` (centres undefined), the cytotoxicity at 70.5 h was -9.81%. Consider `CC(C(=O)N(C)C)S(=O)(=O)c1cc2c(cc1Cl)OCCO2` (centres undefined), for which the cytotoxicity at 70.5 h was -6.12%. With `Cc1cc(CN(C)c2nc(-c3ccco3)nc3c2CCN(C)CC3)on1`, the cytotoxicity at 70.5 h was -22.6%.

With `O=C(O)c1cc(S(=O)(=O)Nc2cccc3c2OCCO3)ccc1F`, the cytotoxicity at 70.5 h was -18.2%.

With `O=C(C1CCN(c2nc3nc[nH]c(=O)c3s2)CC1)N1CCCCC1`, the cytotoxicity at 70.5 h was -15.6%. Turning to `Cn1ccc2ccc(C(=O)N3CCC[C@H]3C(=O)N3CCOCC3)cc21`, the cytotoxicity at 70.5 h was -11.1%. To `CC(C)n1ccnc1C1CCCN(c2cc(C(=O)NC3CC3)ccn2)C1` (centres undefined) belongs 12.2%; to `O=C1Nc2ccccc2CNC12CCN(CC1CCNC1)CC2` (centres undefined), -11%. For the compound `O=S1(=O)CCC(NCCn2cncc2-c2ccc3c(c2)CCCO3)C1` (centres undefined), the cytotoxicity at 70.5 h is -8.18%. Consider `CCc1csc(C2CCCN(C(=O)c3c[nH]c(C)n3)C2)n1` (centres undefined), for which the cytotoxicity at 70.5 h is -12%.

`CN(CCc1ccc2c(c1)CCO2)C1CCS(=O)(=O)CC1`: the cytotoxicity at 70.5 h came to 16.1%. Regarding `O=C(c1ccoc1)N1CCC(NCc2cccnc2)CC1`, the cytotoxicity at 70.5 h was 4.06%. To `CCN(C)S(=O)(=O)N1CCCC(c2cccc(C(=O)O)c2)C1` (centres undefined) belongs -8.54%.

As to `N#Cc1cccc(Cl)c1NC1CCN(CC(N)=O)CC1`, the cytotoxicity at 70.5 h is -106%. In the case of `CN(CC(=O)N(C)C1CCCCC1)Cc1nc2ccccc2c(=O)[nH]1`, the cytotoxicity at 70.5 h was -6.53%. On to `Cc1ccccc1C(=O)N1C[C@@H]2CCN(c3cccnc3)C[C@@H]2C1`, for which the cytotoxicity at 70.5 h was -4.88%. On to `CCOc1ccc(C(=O)Nc2ccn(CC)n2)cc1`, for which the cytotoxicity at 70.5 h is -1.03%. On to `O=C(c1ccc2c(c1)OCCCO2)N1CCCCC1C1OCCO1` (centres undefined), for which the cytotoxicity at 70.5 h was -3.71%. With `Cc1ccnc(C2CCCN2C(=O)c2cnccn2)n1` (centres undefined), the cytotoxicity at 70.5 h was -9.28%. To `C[C@@H]1CN(Cc2ccc(C(F)(F)F)cc2F)CC[C@]1(C)O` belongs 26.4%; to `CCCc1nc(C(=O)N[C@H]2COC[C@@H]2N2CCN(C)CC2)cs1`, -7.8%.

For the compound `COC(=O)[C@H](CCSC)NC(=O)Cc1c(C)nn(-c2ccccc2)c1C`, the cytotoxicity at 70.5 h was -11.6%. For the compound `Cc1c(C)n(Cc2ccncc2)c2nc3c(c(N)c12)CCCC3`, the cytotoxicity at 70.5 h was -7.64%. To `CC1CN(c2ccc(NC(=O)Cn3cccn3)cc2)CCO1` (centres undefined) belongs -5.08%; to `CC(C)N(C)C(=O)C1=NOC2(CCN(C(=O)c3ccc(Cl)cc3)C2)C1` (centres undefined), -0.00349%; to `Cc1ccccc1N1CCCN(C(=O)CC2CN(C(C)C)CCO2)CC1` (centres undefined), 0.214%. Consider `COc1ccccc1NC(=O)NCCCn1nc2ccccn2c1=O`, for which the cytotoxicity at 70.5 h was -3.26%. To `Cc1nc(CN2C[C@@H]3COC[C@]3(COCC(=O)N(C)C)C2)cs1` belongs -5.31%; to `CCCC(NC(=O)c1cc(C)c(F)cc1F)c1nnn[nH]1` (centres undefined), -2.37%; to `COCCC(=O)N1C[C@H]2CC[C@@H]1CN(C1Cc3ccccc3C1)C2`, -10%. To `CCn1nc2nc(SCC(=O)O)cc(C(F)F)c2c1C` belongs -5.31%. Next, `Cc1ccc(CN(Cc2ccncc2)C2CC(C)(C)NC(C)(C)C2)o1`: -2.36%; `Cc1cc(C(=O)N2CCCN(Cc3cnn(C(C)C)c3)CC2)no1`: -3%; `O=C1CCC2(CCN(S(=O)(=O)c3ccccc3)CC2)N1CC1CC1`: -12.5%. Turning to `Cc1ccc(=O)n(CC2(O)CCN(Cc3cccs3)CC2)n1`, the cytotoxicity at 70.5 h was -8.17%.

As to `COc1ncc(CN(CCN(C)C)Cc2ccc(C)s2)cn1`, the cytotoxicity at 70.5 h stood at 12.8%. To `O=C(NCCNc1cc(N2CCCC2)ncn1)c1cnccn1` belongs -7.66%; to `O=C(c1cnccn1)N1CCCC(Cc2cncc3ccccc23)C1` (centres undefined), -6.77%.

Take `Cn1ccc(C(=O)N2CCCC2c2cc(CO)[nH]n2)n1` (centres undefined): the cytotoxicity at 70.5 h was -2.72%. Next, `CC(C)n1cnnc1CN(C)CC1CCCNC1` (centres undefined): -5.56%.

As for `CN(C)C(=O)C1CCCN1C(=O)c1ccc(Cn2ccnc2)o1` (centres undefined), the cytotoxicity at 70.5 h was 10.3%.

For the compound `Cc1cnc(N2CC[C@@H]3O[C@@H](COCc4ccccn4)CC[C@@H]32)nc1`, the cytotoxicity at 70.5 h was -8.03%. As for `CCN1C[C@H]2C3(CCN(S(C)(=O)=O)CC3)CC[C@@]2(C(=O)N(C)C)C1`, the cytotoxicity at 70.5 h is -9.68%. Next, `CC(C(=O)Nc1ncccn1)N1CCc2[nH]nc(C(F)(F)F)c2C1` (centres undefined): -6.74%; `CCNC(=O)c1ccc(NC(=O)N(C)Cc2cc(C)on2)cc1`: -4.32%. Take `COc1cc(N2CCC3(CC2)OCC(=O)NC3C)ncn1` (centres undefined): the cytotoxicity at 70.5 h is -4.57%.

With `N#Cc1ccc(C(=O)N2CCc3c(COCC4CC4)cncc3C2)cc1`, the cytotoxicity at 70.5 h is -5.21%. Take `COc1ccc(C2CCCN2Cc2cnn(C)c2)cc1` (centres undefined): the cytotoxicity at 70.5 h is -9.31%. In the case of `CCOc1ccc(OCC)c(NCc2cc(C)on2)c1`, the cytotoxicity at 70.5 h is 8.35%.

As for `COC(=O)CCC(=O)N1CCCC2(CCCN2Cc2cccc(F)c2)C1` (centres undefined), the cytotoxicity at 70.5 h is -6.42%.
